Experimental data published in patent US5017723A, “Substituted ethylamines, their preparation process, their use as medicine and their synthesising agents” (Jouveinal S.A., priority 1990, dated 1991).
Counter-ions that a name gives are not always drawn. Like-named read-outs stand apart in the source and are kept apart here.

Test system: convulsion induced by picrotoxine in mice
Assay: Protection against picrotoxine-induced convulsion (suppression of the tonic extension phase)
Assay type: in vivo, male Swiss mice
Settings: for responders at 50 mg/kg / responders at 100 mg/kg / ED50: Mus musculus; for responders at 50 mg/kg: 0.5 h, read-out: i.p.: % prot. (percentage of protected animals), 50 mg/kg i.p., picrotoxine 24 mg/kg i.p. 30 min later; for responders at 100 mg/kg: 1 h, read-out: p.o.: % prot. (percentage of protected animals), 100 mg/kg p.o., picrotoxine 24 mg/kg i.p. 60 min later; for i.p.: % prot. (percentage of protected animals): 50 mg/kg i.p., picrotoxine 24 mg/kg i.p. 30 min later
Source text: The psychotropic properties of the compounds have been determined by the protection of the induced convulsion by picrotoxine for mice, which is achieved by the method derived from that of Krall et al., "Epilepsia", 1978, 19, p. 409-428.
The administration of picrotoxine caused a convulsive crisis in the animal characterised by a myoclonic extension syndrome followed by the extension of the limbs causing the animal to die. Certain substances, particularly those active on the complex GABA/benzodiazepines/Cl-ionophore makes it possible to protect the animals from this convulsive crisis.
In practice the study is carried out on batches of 10 male "Swiss" mice weighing approximately 20 g, which are administered with the product to be studied in aqueous solution either by intraperitoneal route (i.p.) at the rate of 50 mg/kg and in a volume of 0.2 ml of solution per animal, or by oral route (p.o) in a volume of 2.0 ml of solution per animal.
An injection of a solution of picrotoxine at the rate of 24 mg/kg in a volume of 0.2 ml per animal is then administered by interperitoneal route, either 30 minutes after administering the product by interperitoneal route or 60 minutes after administering the product by oral route. The dose of the product injected causing a clonic crisis, which results in untreated animals dying. The suppression of the extension tonic phase in the animals treated under the conditions of the test is observed. The results are expressed:
either in percentages of protected animals of this phase to the reaction of 50 mg/kg of the compound of the study administered by i.p. route or 100 mg/kg by p.o route,
or in DE50 for each of these routes, which is the efficient dosage of the test compound expressed in mg/kg protecting 50% of the animals of this extension phase. The significant value of the results being generally indicated in the following manner:
* Significant result at p<0.05
** Significant result at p<0.01
*** Significant highly significant at p<0.001.

[1] = ip, * p<0.05, ** p<0.01, *** p<0.001
[2] = po, * p<0.05, ** p<0.01, *** p<0.001
[3] = * p<0.05, ** p<0.01, *** p<0.001

## CCC(C[C@@H]1C[C@H]1c1ccccc1)(c1ccccn1)N(C)C (relative stereo) [Example 58, trans N,N-dimethyl-a-ethyl-a-(2-phenyl-1-cyclopropylmethyl)-(2-pyridyl)methanamine]
[1]
  responders at 50 mg/kg: 70%
[2]
  responders at 100 mg/kg: 80%

## CCC(CC=Cc1cccs1)(c1ccsc1)N(C)C (centres unmarked) [Example 69, N,N-dimethyl-a-ethyl-a-[3-(2-thienyl)-2-propenyl]-3-thienylmethylamine]
[1]
  responders at 50 mg/kg: 90%
[2]
  responders at 100 mg/kg: 80%

## CCC(N)(CC=Cc1ccccc1)c1ccccc1 (centres unmarked) [Example 3, a-cinnamyl-a-ethyl-benzylamine]
[1]
  responders at 50 mg/kg: 80%
[2]
  responders at 100 mg/kg: 100%

## CC(N)(CC=Cc1ccc(Cl)c(Cl)c1)c1ccccc1 (centres unmarked) [Example 9, a-(3',4'-dichloro) cinnamyl-a-methylbenzylamine]
[1]
  responders at 50 mg/kg: 100%

## CCC(CC=Cc1cccs1)(c1ccccc1)N(C)C (centres unmarked) [Example 55, N,N-dimethyl-a-ethyl-a-[30(2-thienyl)-2-propenyl]-benzylamine]
[1]
  responders at 50 mg/kg: 70%
[2]
  responders at 100 mg/kg: 70%

## CCC(CC=Cc1cccs1)(c1ccco1)N(C)C (centres unmarked) [Example 61, N,N-dimethyl-a-ethyl-a-[3-(2-thienyl)-2-propenyl]-2-furfurylamine]
[1]
  responders at 50 mg/kg: 50%

## CCC(CC=Cc1ccccc1)(NC)c1ccccc1 (centres unmarked) [Example 18, a-cinnamyl-a-ether-N-methyl-benzylamine]
[1]
  responders at 50 mg/kg: 80%
[2]
  responders at 100 mg/kg: 100%

## CCC(N)(CC=Cc1ccc(Cl)c(Cl)c1)c1ccc(OC)cc1 (centres unmarked) [Example 13]
ip, read-out: i.p.: DE50
  ED50: 23.2 mg/kg
[2]
  responders at 100 mg/kg: 50%

## CCC(C[C@@H]1C[C@H]1c1ccccc1)(c1cc(OC)c(OC)c(OC)c1)N(C)C (relative stereo) [Example 54, trans N,N-dimethyl-a-ethyl-a-(2-phenyl-1-cyclopropylmethyl)-3,4,5-trimethoxybenzylamine]
[1]
  responders at 50 mg/kg: 70%

## C=CCN(C)C(CC)(CC=Cc1ccccc1)c1ccccc1 (centres unmarked) [Example 38, N-allyl-a-cinnamyl-a-ethyl-N-methylbenzylamine]
[1]
  responders at 50 mg/kg: 80%

## CCC(N)(CC=Cc1ccccc1)c1ccc(Cl)c(Cl)c1 (centres unmarked) [Example 5, a-cinnamyl-a-ethyl-3,4 dichlorobenzylamine]
[1]
  responders at 50 mg/kg: 50%

## CCC(CC=Cc1ccccc1)(c1ccsc1)N(C)C (centres unmarked) [Example 67, a-cinnamyl-N,N-dimethyl-a-ethyl-3-thienylmethylamine]
[1]
  responders at 50 mg/kg: 70%
[2]
  responders at 100 mg/kg: 100%

## CCC(CC=Cc1ccccc1)(c1ccc(C(F)(F)F)cc1)N(C)C (centres unmarked) [Example 34, a-cinnamyl-N,N-dimethyl-a-ethyl-p.trifluoromethylbenzylamine]
[1]
  responders at 50 mg/kg: 80%
[2]
  responders at 100 mg/kg: 60%

## CCC(N)(CC=Cc1ccccc1)c1ccccc1 (single isomer, unassigned) [Example 16B, (+) tartrate of (-)a-cinnamyl-a-ethyl benzylamine]
[3]
  i.p.: % prot. (percentage of protected animals): 100%
100 mg/kg p.o., picrotoxine 24 mg/kg i.p. 60 min later, * p<0.05, ** p<0.01, *** p<0.001
  p.o.: % prot. (percentage of protected animals): 100%

## CCC(CC=Cc1ccccc1)(NC)c1cccc(C(F)(F)F)c1 (centres unmarked) [Example 21, a-cinnamyl-a-ethyl-N-methyl-(m.trifluoromethyl)benzylamine]
[1]
  responders at 50 mg/kg: 90%
[2]
  responders at 100 mg/kg: 70%

## CN(C)C(C)(CC=Cc1ccccc1)c1ccccc1 (centres unmarked) [Example 40, a-cinnamyl-N,N-dimethyl-a-methyl-benzylamine]
ip, read-out: i.p.: DE50
  ED50: 16.6 mg/kg
po, read-out: p.o.: DE50
  ED50: 37.7 mg/kg

## CCC(C[C@@H]1C[C@H]1c1ccccc1)(c1ccsc1)N(C)C (relative stereo) [Example 68, trans N,N-dimethyl-a-ethyl-a-(2-phenyl-1-cyclopropylmethyl)-3-trienylmethylamine]
[1]
  responders at 50 mg/kg: 100%

## CCC(CC=Cc1ccccc1)(c1ccccc1)N(C)C (centres unmarked) [Example 30, a-cinnamyl-N,N-dimethyl-a-ethyl-benzylamine]
[1]
  responders at 50 mg/kg: 100%
[2]
  responders at 100 mg/kg: 100%

## CCC(C[C@@H]1C[C@H]1c1ccccc1)(c1ccco1)N(C)C (relative stereo) [Example 60, trans N,N-dimethyl-a-ethyl-a-(2-phenyl-1-cyclopropylmethyl)-2-furfurylamine]
[1]
  responders at 50 mg/kg: 80%
[2]
  responders at 100 mg/kg: 60%

## CCCCCC(CC=Cc1ccccc1)(c1ccccc1)N(C)C (centres unmarked) [Example 42, a-cinnamyl-N,N-dimethyl-a-pentyl-benzylamine]
po, read-out: p.o.: DE50
  ED50: 65 mg/kg

## CCC(N)(CC=Cc1ccccc1)c1ccc(C)cc1 (centres unmarked) [Example 6, a-cinnamyl-a-ethyl-p.methylbenzylamine]
[1]
  responders at 50 mg/kg: 70%
[2]
  responders at 100 mg/kg: 70%

## CCC(N)(CC=Cc1ccc(Cl)c(Cl)c1)c1ccccc1 (centres unmarked) [Example 10, a-(3',4'-dichloro) cinnamyl-a-ethyl-benzylamine]
[1]
  responders at 50 mg/kg: 90%

## CCC(CC=Cc1ccccc1)(NC)c1ccc(Cl)c(Cl)c1 (centres unmarked) [Example 20, a-cinnamyl-a-ethyl-N-methyl-3,4-dichlorobenzylamine]
[2]
  responders at 100 mg/kg: 80%

## CCC(CC=Cc1ccsc1)(c1ccccc1)N(C)C (centres unmarked) [Example 56, N,N-dimethyl-a-ethyl-a-[30(3-thienyl)-2-propenyl]-benzylamine]
[1]
  responders at 50 mg/kg: 70%
[2]
  responders at 100 mg/kg: 80%

## CC(C)C(N)(CC=Cc1ccc(Cl)c(Cl)c1)c1ccccc1 (centres unmarked) [Example 11, a-(3',4'-dichloro)cinnamyl-a-isopropylbenzylamine]
[1]
  responders at 50 mg/kg: 70%
[2]
  responders at 100 mg/kg: 100%

## CCC(N)(CC=Cc1ccccc1)c1cccc(C(F)(F)F)c1 (centres unmarked) [Example 7, a-cinnamyl-a-ethyl-(m.trifluoromethyl)benzylamine]
[1]
  responders at 50 mg/kg: 100%

## CCC(N)(CC=Cc1ccc(Cl)c(Cl)c1)c1cccc(C(F)(F)F)c1 (centres unmarked) [Example 15, a-(3',4'-dichloro)cinnamyl-a-ethyl-m.trifluoromethylbenzylamin]
ip, read-out: i.p.: DE50
  ED50: > 25 mg/kg

## CCC(N)(CC=Cc1ccccc1)c1ccc(Cl)cc1 (centres unmarked) [Example 4, a-cinnamyl-a-ethyl-p.chlorobenzylamine]
[1]
  responders at 50 mg/kg: 60%

## CCC(N)(CC=Cc1ccccc1)c1ccccc1 (single isomer, unassigned) [Example 16A, (-) tartrate of (+) a-cinnamyl-a-ethyl-benzylamine]
[1]
  responders at 50 mg/kg: 90%
[2]
  responders at 100 mg/kg: 100%

## CCC(CC=Cc1ccccc1)(NC)c1ccc(OC)cc1 (centres unmarked) [Example 22, a-cinnamyl-a-ethyl-N-methyl-p.methoxybenzylamine]
[1]
  responders at 50 mg/kg: 80%
[2]
  responders at 100 mg/kg: 100%

## CCC(N)(CC=Cc1ccccc1)c1ccc(Cl)cc1 (single isomer, unassigned; (+)) [Example 17A, (+) a-cinnamyl-a-ethyl-p.chlorobenzylamine]
[1]
  responders at 50 mg/kg: 80%
[2]
  responders at 100 mg/kg: 50%

## CCC(CC=Cc1ccccc1)(c1cccs1)N(C)C (centres unmarked) [Example 62, a-cinnamyl-N,N-dimethyl-a-ethyl-2-thienylmethylamine]
[2]
  responders at 100 mg/kg: 80%

## CCC(CC=Cc1cccs1)(c1cccs1)N(C)C (centres unmarked) [Example 65, N,N-dimethyl-a-ethyl-a-[3-(2-thienyl)-2-propenyl]-2-thienylmethylamine]
[1]
  responders at 50 mg/kg: 90%
[2]
  responders at 100 mg/kg: 50%

## CCC(CC=Cc1ccccc1)(c1ccccc1)N(C)C (single isomer, unassigned; (+)) [Example 50, (+) a-cinnamyl-N,N-dimethyl-a-ethyl-benzylamine]
[3]
  i.p.: % prot. (percentage of protected animals): 100%

## CC(C)C(CC=Cc1ccccc1)(c1ccccc1)N(C)C (centres unmarked) [Example 41, a-cinnamyl-N,N-dimethyl-a-isopropylbenzylamine]
po, read-out: p.o.: DE50
  ED50: 78.4 mg/kg

## CCC(N)(CC=Cc1ccc(Cl)c(Cl)c1)c1ccc(C)cc1 (centres unmarked) [Example 12, a-(3',4'-dichloro)cinnamyl-a-ethyl-p.methylbenzylamine]
ip, read-out: i.p.: DE50
  ED50: 37.3 mg/kg
po, read-out: p.o.: DE50
  ED50: 50 mg/kg

## CCC(CC=Cc1ccccc1)(NC)c1ccccc1 (single isomer, unassigned; (-)) [Example 28, (-) a-cinnamyl-a-ethyl-N-methyl benzylamine]
[1]
  responders at 50 mg/kg: 100%
[2]
  responders at 100 mg/kg: 100%

## CCC(CC=Cc1ccccc1)(c1ccco1)N(C)C (centres unmarked) [Example 59, a-cinnamyl-N,N-dimethyl-a-ethyl-2-furfurylamine]
[1]
  responders at 50 mg/kg: 90%
[2]
  responders at 100 mg/kg: 100%

## CN(C)C(C)(CC=Cc1ccc(Cl)c(Cl)c1)c1ccccc1 (centres unmarked) [Example 48, a-(3.4 dichloro)cinnamyl-N,N-dimethyl-a-methyl-benzylamine]
[1]
  responders at 50 mg/kg: 90%
